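Values below derive from 48-hour exposures of cells grown in 96-well plates, with endpoints linearly interpolated between the two concentrations bracketing the appropriate inhibition level. Abbreviation: GI50, concentration required for 50% inhibition of growth. TGI: concentration producing complete growth inhibition.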
Key:
Assay in all cases: NCI tumour cell line growth inhibition, 48 h
TK-10 renal = system: TK-10 renal
UACC-257 melanoma = system: UACC-257 melanoma
LOX IMVI melanoma = system: LOX IMVI melanoma
UO-31 renal = system: UO-31 renal
MDA-MB-231 breast = system: MDA-MB-231 breast
HOP-92 NSCLC = system: HOP-92 NSCLC
EKVX NSCLC = system: EKVX NSCLC
SN12C renal = system: SN12C renal
SF-295 CNS = system: SF-295 CNS
MCF7 breast = system: MCF7 breast
RXF 393 renal = system: RXF 393 renal
SK-MEL-5 melanoma = system: SK-MEL-5 melanoma
SF-268 CNS = system: SF-268 CNS
COLO 205 colon = system: COLO 205 colon
HCT-15 colon = system: HCT-15 colon
DU-145 prostate = system: DU-145 prostate
MDA-MB-435 = system: MDA-MB-435
HL-60(TB) leukemia = system: HL-60(TB) leukemia
CCRF-CEM leukemia = system: CCRF-CEM leukemia
SK-MEL-28 melanoma = system: SK-MEL-28 melanoma
NCI-H522 lung = system: NCI-H522 lung
BT-549 breast = system: BT-549 breast
SR leukemia = system: SR leukemia
K-562 leukemia = system: K-562 leukemia
HCT-116 colon = system: HCT-116 colon
IGROV1 ovarian = system: IGROV1 ovarian
U251 CNS = system: U251 CNS
NCI-H460 lung = system: NCI-H460 lung
HS 578T breast = system: HS 578T breast
A549 NSCLC = system: A549 NSCLC
SK-OV-3 ovarian = system: SK-OV-3 ovarian
NCI/ADR-RES ovarian = system: NCI/ADR-RES ovarian
SW-620 colon = system: SW-620 colon
MALME-3M melanoma = system: MALME-3M melanoma
NCI-H23 lung = system: NCI-H23 lung
MOLT-4 leukemia = system: MOLT-4 leukemia
NCI-H226 lung = system: NCI-H226 lung
PC-3 prostate = system: PC-3 prostate
HOP-62 NSCLC = system: HOP-62 NSCLC
OVCAR-3 ovarian = system: OVCAR-3 ovarian
RPMI-8226 leukemia = system: RPMI-8226 leukemia
A498 renal = system: A498 renal
CAKI-1 renal = system: CAKI-1 renal
T-47D breast = system: T-47D breast
SF-539 CNS = system: SF-539 CNS
OVCAR-5 ovarian = system: OVCAR-5 ovarian
SNB-75 CNS = system: SNB-75 CNS
HCC-2998 colon = system: HCC-2998 colon
KM12 colon = system: KM12 colon
SK-MEL-2 melanoma = system: SK-MEL-2 melanoma
HT29 colon = system: HT29 colon
ACHN renal = system: ACHN renal
OVCAR-4 ovarian = system: OVCAR-4 ovarian
M14 melanoma = system: M14 melanoma

COc1cc2cc(Oc3ccc(NC(=O)c4cc(C(F)(F)F)cc(C(F)(F)F)c4)cc3)c(C)nc2cc1OC
GI50 (TK-10 renal): 3.82 µM
TGI (TK-10 renal): > 50 µM
GI50 (UACC-257 melanoma): 4.07 µM
TGI (UACC-257 melanoma): > 50 µM
GI50 (LOX IMVI melanoma): 47 µM
TGI (LOX IMVI melanoma): > 50 µM
GI50 (UO-31 renal): 2.6 µM
TGI (UO-31 renal): > 50 µM
GI50 (MDA-MB-231 breast): 2.55 µM
TGI (MDA-MB-231 breast): > 50 µM
GI50 (HOP-92 NSCLC): 1.82 µM
TGI (HOP-92 NSCLC): > 50 µM
GI50 (EKVX NSCLC): 2.04 µM
TGI (EKVX NSCLC): > 50 µM
GI50 (SN12C renal): 3.49 µM
TGI (SN12C renal): > 50 µM
GI50 (SF-295 CNS): 1.64 µM
TGI (SF-295 CNS): > 50 µM
GI50 (MCF7 breast): 1.91 µM
TGI (MCF7 breast): > 50 µM
GI50 (RXF 393 renal): 2.93 µM
TGI (RXF 393 renal): > 50 µM
GI50 (SK-MEL-5 melanoma): 2.76 µM
TGI (SK-MEL-5 melanoma): > 50 µM
GI50 (SF-268 CNS): > 50 µM
TGI (SF-268 CNS): > 50 µM
GI50 (COLO 205 colon): 3.05 µM
TGI (COLO 205 colon): > 50 µM
GI50 (HCT-15 colon): 2.75 µM
TGI (HCT-15 colon): > 50 µM
GI50 (DU-145 prostate): 4.78 µM
TGI (DU-145 prostate): > 50 µM
GI50 (MDA-MB-435): > 50 µM
TGI (MDA-MB-435): > 50 µM
GI50 (HL-60(TB) leukemia): 3.51 µM
TGI (HL-60(TB) leukemia): > 50 µM
GI50 (CCRF-CEM leukemia): 2.32 µM
TGI (CCRF-CEM leukemia): > 50 µM
GI50 (SK-MEL-28 melanoma): > 50 µM
TGI (SK-MEL-28 melanoma): > 50 µM
GI50 (NCI-H522 lung): 2.01 µM
TGI (NCI-H522 lung): > 50 µM
GI50 (BT-549 breast): 3.02 µM
TGI (BT-549 breast): > 50 µM
GI50 (SR leukemia): 4.8 µM
TGI (SR leukemia): > 50 µM
GI50 (K-562 leukemia): 2.34 µM
TGI (K-562 leukemia): > 50 µM
GI50 (HCT-116 colon): 1.56 µM
TGI (HCT-116 colon): > 50 µM
GI50 (IGROV1 ovarian): 4.63 µM
TGI (IGROV1 ovarian): > 50 µM
GI50 (U251 CNS): 2.64 µM
TGI (U251 CNS): > 50 µM
GI50 (NCI-H460 lung): 2.16 µM
TGI (NCI-H460 lung): > 50 µM
GI50 (HS 578T breast): 9.13 µM
TGI (HS 578T breast): > 50 µM
GI50 (A549 NSCLC): 3.08 µM
TGI (A549 NSCLC): > 50 µM
GI50 (SK-OV-3 ovarian): > 50 µM
TGI (SK-OV-3 ovarian): > 50 µM
GI50 (NCI/ADR-RES ovarian): 2.61 µM
TGI (NCI/ADR-RES ovarian): > 50 µM
GI50 (SW-620 colon): 4.35 µM
TGI (SW-620 colon): > 50 µM
GI50 (MALME-3M melanoma): > 50 µM
TGI (MALME-3M melanoma): > 50 µM
GI50 (NCI-H23 lung): 2.71 µM
TGI (NCI-H23 lung): > 50 µM
GI50 (MOLT-4 leukemia): 3.71 µM
TGI (MOLT-4 leukemia): > 50 µM
GI50 (NCI-H226 lung): 6.2 µM
TGI (NCI-H226 lung): > 50 µM
GI50 (PC-3 prostate): 1.66 µM
TGI (PC-3 prostate): > 50 µM
GI50 (HOP-62 NSCLC): > 50 µM
TGI (HOP-62 NSCLC): > 50 µM
GI50 (OVCAR-3 ovarian): 1.96 µM
TGI (OVCAR-3 ovarian): > 50 µM
GI50 (RPMI-8226 leukemia): 1.57 µM
TGI (RPMI-8226 leukemia): > 50 µM
GI50 (A498 renal): 1.13 µM
TGI (A498 renal): > 50 µM
GI50 (CAKI-1 renal): 1.5 µM
TGI (CAKI-1 renal): > 50 µM
GI50 (T-47D breast): 2.24 µM
TGI (T-47D breast): > 50 µM
GI50 (SF-539 CNS): > 50 µM
TGI (SF-539 CNS): > 50 µM
GI50 (OVCAR-5 ovarian): > 50 µM
TGI (OVCAR-5 ovarian): > 50 µM
GI50 (SNB-75 CNS): 41.5 µM
TGI (SNB-75 CNS): > 50 µM
GI50 (HCC-2998 colon): > 50 µM
TGI (HCC-2998 colon): > 50 µM
GI50 (KM12 colon): 2.79 µM
TGI (KM12 colon): > 50 µM
GI50 (SK-MEL-2 melanoma): 15.8 µM
TGI (SK-MEL-2 melanoma): > 50 µM
GI50 (HT29 colon): > 50 µM
TGI (HT29 colon): > 50 µM
GI50 (ACHN renal): 2.27 µM
TGI (ACHN renal): > 50 µM
GI50 (OVCAR-4 ovarian): 4.53 µM
TGI (OVCAR-4 ovarian): > 50 µM
GI50 (M14 melanoma): 3.23 µM
TGI (M14 melanoma): > 50 µM

From PubChem BioAssay (NCI)
